For eleven compounds, T/C results are on record in PubChem BioAssay AID270 (DTP/NCI, 2004).

Molecules are shown by their SMILES. “And” between values parts separate entries of the source, which are not always exact repeats. Equal values may be shown once. Inconclusive results are not listed.

This assay relates to BDF1 mice, s.c. Lewis lung carcinoma, T/C %. As to the kind of experiment: NCI In Vivo Anticancer Drug Screen. Data for tumor model Lewis Lung Carcinoma (subcutaneous) in B6D2F1 (BDF1) mice. The method in brief:
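Antitumor effect in vivo is scored from survival or tumor burden, reported as treated relative to vehicle controls.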

[1] abbreviates: endpoint: mean tumor weight, dose: 62.5 mg/kg/injection, schedule: Q01DX011 (ip), vehicle: saline, higher = larger tumour.
The mark [2] stands for this setting: endpoint: mean tumor weight, dose: 125.0 mg/kg/injection, schedule: Q01DX011 (ip), vehicle: saline, higher = larger tumour.
The mark [3] stands for this setting: endpoint: mean tumor weight, dose: 250.0 mg/kg/injection, schedule: Q01DX011 (ip), vehicle: saline, higher = larger tumour.
[4] abbreviates: endpoint: mean tumor weight, dose: 500.0 mg/kg/injection, schedule: Q01DX011 (ip), vehicle: saline, higher = larger tumour.

With `OC(C1CO1)C(O)C1CO1` (configuration not stated), the T/C runs as follows: (endpoint: mean tumor weight (est.), dose: 1.0 mg/kg/injection, schedule: Q01DX009 (ip), vehicle: saline, higher = larger tumour) 73 % of control; (endpoint: mean tumor weight (est.), dose: 1.0 mg/kg/injection, schedule: Q04DX003 (ip), vehicle: saline, higher = larger tumour) 65 % of control; (endpoint: mean tumor weight (est.), dose: 2.0 mg/kg/injection, schedule: Q01DX009 (ip), vehicle: saline, higher = larger tumour) 46 % of control; (endpoint: mean tumor weight (est.), dose: 2.0 mg/kg/injection, schedule: Q04DX003 (ip), vehicle: saline, higher = larger tumour) 45 % of control; (endpoint: mean tumor weight (est.), dose: 4.0 mg/kg/injection, schedule: Q04DX003 (ip), vehicle: saline, higher = larger tumour) 63 % of control; (endpoint: median survival time, dose: 1.0 mg/kg/injection, schedule: Q01DX009 (ip), vehicle: saline, higher = longer survival) 95 % of control. Also, the T/C is 104 % of control (endpoint: median survival time, dose: 1.0 mg/kg/injection, schedule: Q04DX003 (ip), vehicle: saline, higher = longer survival); 117 % of control (endpoint: median survival time, dose: 2.0 mg/kg/injection, schedule: Q01DX009 (ip), vehicle: saline, higher = longer survival); 104 % of control (endpoint: median survival time, dose: 2.0 mg/kg/injection, schedule: Q04DX003 (ip), vehicle: saline, higher = longer survival); 123 % of control (endpoint: median survival time, dose: 4.0 mg/kg/injection, schedule: Q04DX003 (ip), vehicle: saline, higher = longer survival).

In the case of `CC1(C)OCC(CO)(Nc2nc(N3CC3)nc(N3CC3)n2)CO1`, the T/C is, setting by setting: (endpoint: median survival time, dose: 0.62 mg/kg/injection, schedule: Q01DX009 (ip), vehicle: saline, higher = longer survival) 100 % of control and 119 % of control; (endpoint: median survival time, dose: 1.25 mg/kg/injection, schedule: Q01DX009 (ip), vehicle: saline, higher = longer survival) 115 % of control and 116 % of control; (endpoint: median survival time, dose: 2.5 mg/kg/injection, schedule: Q01DX009 (ip), vehicle: saline, higher = longer survival) 112 % of control.

For the compound `CCCNc1ncnc2c1cnn2C`, the T/C (endpoint: mean tumor weight, dose: 3.12 mg/kg/injection, schedule: Q01DX011 (ip), vehicle: saline, higher = larger tumour) is 95 % of control; the T/C (endpoint: mean tumor weight, dose: 6.25 mg/kg/injection, schedule: Q01DX011 (ip), vehicle: saline, higher = larger tumour) is 89 % of control; the T/C (endpoint: mean tumor weight, dose: 12.5 mg/kg/injection, schedule: Q01DX011 (ip), vehicle: saline, higher = larger tumour) was 65 % of control; the T/C (endpoint: mean tumor weight, dose: 25.0 mg/kg/injection, schedule: Q01DX011 (ip), vehicle: saline, higher = larger tumour) was 28 % of control.

As for `CC1OC(OCC2OC(Oc3c(-c4ccc(O)c(O)c4)oc4cc(O)cc(O)c4c3=O)C(O)C(O)C2O)C(O)C(O)C1O` (configuration not stated), the T/C under setting [1] was 104 % of control, the T/C under setting [2] is 93 % of control, the T/C under setting [3] was 67 % of control and the T/C under setting [4] is 52 % of control.

For `Cc1ccc(N2CCN(CCCN3CCN(c4ccc(Cl)cc4)CC3)CC2)cc1`, the T/C reads like this: (endpoint: mean tumor weight, dose: 12.5 mg/kg/injection, schedule: Q01DX011 (ip), vehicle: other, higher = larger tumour) 66 % of control; (endpoint: mean tumor weight, dose: 25.0 mg/kg/injection, schedule: Q01DX011 (ip), vehicle: other, higher = larger tumour) 108 % of control; (endpoint: mean tumor weight, dose: 50.0 mg/kg/injection, schedule: Q01DX011 (ip), vehicle: other, higher = larger tumour) 70 % of control; (endpoint: mean tumor weight, dose: 100.0 mg/kg/injection, schedule: Q01DX011 (ip), vehicle: other, higher = larger tumour) 50 % of control.

In the case of `CC[C@H](CC[C@@H](C)[C@H]1CC[C@H]2[C@@H]3CC=C4C[C@@H](O)CC[C@]4(C)[C@H]3CC[C@]12C)C(C)C`, the T/C was 72 % of control (endpoint: mean tumor weight, dose: 15.0 mg/kg/injection, schedule: Q01DX011 (ip), vehicle: water, higher = larger tumour); 74 % of control (endpoint: mean tumor weight, dose: 25.0 mg/kg/injection, schedule: Q01DX011 (ip), vehicle: water, higher = larger tumour); 47 % of control (endpoint: mean tumor weight, dose: 40.0 mg/kg/injection, schedule: Q01DX011 (ip), vehicle: water, higher = larger tumour); 47 % of control (endpoint: mean tumor weight, dose: 100.0 mg/kg/injection, schedule: Q01DX011 (ip), vehicle: water, higher = larger tumour); 32 % of control (endpoint: mean tumor weight, dose: 150.0 mg/kg/injection, schedule: Q01DX011 (ip), vehicle: water, higher = larger tumour); 11 % of control (endpoint: mean tumor weight, dose: 225.0 mg/kg/injection, schedule: Q01DX011 (ip), vehicle: water, higher = larger tumour).

Consider `COC(=O)C1CCC(NC(=O)N(CCCl)N=O)CC1` (configuration not stated), for which the T/C (endpoint: median survival time, dose: 14.0 mg/kg/injection, schedule: Q01DX001 (ip), vehicle: saline with Tween-80, higher = longer survival) was 206 % of control; the T/C (endpoint: median survival time, dose: 21.0 mg/kg/injection, schedule: Q01DX001 (ip), vehicle: saline with Tween-80, higher = longer survival) is 223 % of control; the T/C (endpoint: median survival time, dose: 23.0 mg/kg/injection, schedule: Q01DX001 (ip), vehicle: saline with Tween-80, higher = longer survival) was 180 % of control; the T/C (endpoint: median survival time, dose: 24.0 mg/kg/injection, schedule: Q01DX001 (ip), vehicle: saline with Tween-80, higher = longer survival) is 152 % of control; the T/C (endpoint: median survival time, dose: 32.0 mg/kg/injection, schedule: Q01DX001 (ip), vehicle: saline with Tween-80, higher = longer survival) is 188 % of control; the T/C (endpoint: median survival time, dose: 36.0 mg/kg/injection, schedule: Q01DX001 (ip), vehicle: saline with Tween-80, higher = longer survival) was 219 % of control. Further, the T/C was 198 % of control (endpoint: median survival time, dose: 54.0 mg/kg/injection, schedule: Q01DX001 (ip), vehicle: saline with Tween-80, higher = longer survival) and 94 % of control (endpoint: median survival time, dose: 81.0 mg/kg/injection, schedule: Q01DX001 (ip), vehicle: saline with Tween-80, higher = longer survival).

With `CS(=O)(=O)OCCCNCCCOS(C)(=O)=O`, the T/C is 63 % of control (endpoint: mean tumor weight, dose: 10.0 mg/kg/injection, schedule: Q01DX011 (ip), vehicle: saline, higher = larger tumour); 70 % of control (endpoint: mean tumor weight, dose: 20.0 mg/kg/injection, schedule: Q01DX011 (ip), vehicle: saline, higher = larger tumour); 42 % of control (endpoint: mean tumor weight, dose: 40.0 mg/kg/injection, schedule: Q01DX011 (ip), vehicle: saline, higher = larger tumour); 105 % of control (endpoint: median survival time, dose: 10.0 mg/kg/injection, schedule: Q01DX009 (ip), vehicle: saline, higher = longer survival); 101 % of control (endpoint: median survival time, dose: 20.0 mg/kg/injection, schedule: Q01DX009 (ip), vehicle: saline, higher = longer survival).

In the case of `NC(=O)NC1NC(=O)NC1=O` (configuration not stated), the T/C by setting is: (endpoint: mean tumor weight, dose: 15.6 mg/kg/injection, schedule: Q01DX011 (ip), vehicle: saline, higher = larger tumour) 67 % of control; (endpoint: mean tumor weight, dose: 31.3 mg/kg/injection, schedule: Q01DX011 (ip), vehicle: saline, higher = larger tumour) 97 % of control; under setting [1], 69 % of control and 76 % of control; under setting [2], 106 % of control; under setting [3], 103 % of control; under setting [4], 101 % of control.

Turning to `C=C(C)C(=O)OCCN(C)C` (tested in a mixture with another compound), the T/C reads like this: (endpoint: median survival time, dose: 50.0 mg/kg/injection, schedule: Q01DX009 (ip), vehicle: other, higher = longer survival) 102 % of control; (endpoint: median survival time, dose: 100.0 mg/kg/injection, schedule: Q01DX009 (ip), vehicle: other, higher = longer survival) 103 % of control; (endpoint: median survival time, dose: 200.0 mg/kg/injection, schedule: Q01DX009 (ip), vehicle: other, higher = longer survival) 108 % of control; (endpoint: median survival time, dose: 400.0 mg/kg/injection, schedule: Q01DX009 (ip), vehicle: other, higher = longer survival) 102 % of control.

For the compound `CCN(CC)CCN1C(=O)c2cccc3cccc(c23)C1=O`, the T/C was 111 % of control (endpoint: mean tumor weight, dose: 48.0 mg/kg/injection, schedule: Q01DX011 (ip), vehicle: saline, higher = larger tumour); 87 % of control (endpoint: mean tumor weight, dose: 73.0 mg/kg/injection, schedule: Q01DX011 (ip), vehicle: saline, higher = larger tumour); 69 % of control (endpoint: mean tumor weight, dose: 110.0 mg/kg/injection, schedule: Q01DX011 (ip), vehicle: saline, higher = larger tumour).
